Measured values as given in ChEMBL document CHEMBL6177960, “Rational design, optimization, and biological evaluation of novel pyrrolo-pyridone derivatives as potent and orally active Cbl-b inhibitors” (Eur J Med Chem, 2025).
pKi: −log10 of the molar value.

Molecular target: E3 ubiquitin-protein ligase CBL-B (Homo sapiens, UniProt Q13191)
Assay: Binding affinity to Cbl-b (unknown origin) assessed as inhibition constant incubated for 60 mins by TR-FRET assay

Chain of E3 ubiquitin-protein ligase CBL-B (Q13191 whole entry): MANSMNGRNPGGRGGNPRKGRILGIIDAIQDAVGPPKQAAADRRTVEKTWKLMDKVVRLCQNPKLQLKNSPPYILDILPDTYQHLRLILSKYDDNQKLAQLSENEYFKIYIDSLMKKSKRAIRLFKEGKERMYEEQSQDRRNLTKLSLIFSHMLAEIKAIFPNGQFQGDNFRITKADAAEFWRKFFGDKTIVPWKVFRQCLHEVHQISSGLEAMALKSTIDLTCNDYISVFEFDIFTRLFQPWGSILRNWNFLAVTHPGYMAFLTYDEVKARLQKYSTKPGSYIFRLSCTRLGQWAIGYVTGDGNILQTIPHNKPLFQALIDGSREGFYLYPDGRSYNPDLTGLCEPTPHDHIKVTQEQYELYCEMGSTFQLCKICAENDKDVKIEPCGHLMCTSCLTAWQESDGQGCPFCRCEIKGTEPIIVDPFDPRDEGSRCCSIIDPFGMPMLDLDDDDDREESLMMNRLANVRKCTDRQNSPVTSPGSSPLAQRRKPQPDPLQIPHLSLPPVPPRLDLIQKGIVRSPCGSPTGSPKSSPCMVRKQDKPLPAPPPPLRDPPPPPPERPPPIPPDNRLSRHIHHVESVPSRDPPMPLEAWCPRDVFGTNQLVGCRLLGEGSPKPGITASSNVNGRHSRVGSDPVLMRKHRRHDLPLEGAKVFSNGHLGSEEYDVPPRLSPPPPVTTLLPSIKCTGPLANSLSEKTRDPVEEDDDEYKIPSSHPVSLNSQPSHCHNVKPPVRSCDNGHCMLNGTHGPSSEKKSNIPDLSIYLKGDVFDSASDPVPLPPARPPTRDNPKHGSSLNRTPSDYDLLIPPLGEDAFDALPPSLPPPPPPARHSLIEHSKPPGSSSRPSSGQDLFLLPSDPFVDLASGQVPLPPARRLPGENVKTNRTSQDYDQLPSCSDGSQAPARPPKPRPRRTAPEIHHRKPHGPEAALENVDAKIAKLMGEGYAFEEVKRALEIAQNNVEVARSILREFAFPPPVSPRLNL

SMILES | pKi
CCN(Cc1cc2c(C(F)(F)F)cn(-c3cccc(C4(c5nncn5C)CCC4)c3)c(=O)c2[nH]1)CC(C)C | 8.54
CO[C@H]1C[C@@](c2cccc(-n3cc(C(F)(F)F)c4cc(CNC5(C)CCC5)[nH]c4c3=O)c2)(c2nncn2C)C1 | 8.85
Cn1cnnc1C1(c2cccc(-n3cc(C(F)(F)F)c4cc(CN5CCCC6(CC6)C5)[nH]c4c3=O)c2)CCC1 | 8.74
Cn1cnnc1C1(c2cccc(-n3cc(C(F)(F)F)c4cc(CN5CCC[C@H]6C[C@H]65)[nH]c4c3=O)c2)CCC1 | 8.70
Cn1cnnc1[C@]1(c2cccc(-n3cc(C(F)(F)F)c4cc(CNC5(C)CCC5)[nH]c4c3=O)c2)C[C@H](C)C1 | 9.07
C[C@H]1CCCN(Cc2cc3c(C(F)(F)F)cn(-c4cccc(C5(c6nncn6C)COC5)c4)c(=O)c3[nH]2)C1 | 8.28
Cn1cnnc1[C@]1(c2cccc(-n3cc(C(F)(F)F)c4cc(CN5CCCC6(CC6)C5)[nH]c4c3=O)c2)C[C@H](C)C1 | 8.88
CO[C@H]1C[C@@](c2cccc(-n3cc(C(F)(F)F)c4cc(CN5CCCC6(CC6)C5)[nH]c4c3=O)c2)(c2nncn2C)C1 | 8.64
CCN(Cc1cc2c(C(F)(F)F)cn(-c3cccc([C@]4(c5nncn5C)C[C@@H](C)C4)c3)c(=O)c2[nH]1)CC(C)C | 8.80
C[C@H]1CCCN(Cc2cc3c(S(C)(=O)=O)cn(-c4cccc(C5(Cc6nncn6C)COC5)c4)c(=O)c3[nH]2)C1 | 7.85
C[C@H]1CCCN(Cc2cc3c(C4CC4)cn(-c4cccc(C5(C(F)c6nncn6C)CC(F)(F)C5)c4)c(=O)c3[nH]2)C1 (some centres not stated) | 8.63
CO[C@H]1C[C@](c2cccc(-n3cc(C(F)(F)F)c4cc(CNC5(C)CCC5)[nH]c4c3=O)c2)(c2nncn2C)C1 | 8.63
C[C@H]1CCCN(Cc2cc3c(C4CC4)cn(-c4cccc(C5(c6nncn6C)CC6(CC6)C5)c4)c(=O)c3[nH]2)C1 | 8.80
Cn1cnnc1[C@]1(c2cccc(-n3cc(C(F)(F)F)c4cc(CN5CC6CC6C5)[nH]c4c3=O)c2)C[C@H](C)C1 (some centres not stated) | 9.07
C[C@H]1CCCN(Cc2cc3c(C(F)(F)F)cn(-c4cccc([C@]5(c6nncn6C)C[C@@H](F)C5)c4)c(=O)c3[nH]2)C1 | 8.90
C/C=C1\C[C@@](c2cccc(-n3cc(C(F)(F)F)c4cc(CN5CCC[C@H](C)C5)[nH]c4c3=O)c2)(c2nncn2C)C1 (some centres not stated) | 8.54
C[C@H]1CCCN(Cc2cc3c(C(F)(F)F)cn(-c4cccc([C@]5(c6nncn6C)C[C@H](F)C5)c4)c(=O)c3[nH]2)C1 | 8.85
C[C@H]1CCCN(Cc2cc3c(C(F)(F)F)cn(-c4cccc(C5(Cc6nncn6C)CC(F)(F)C5)c4)c(=O)c3[nH]2)C1 | 9.13
C[C@H]1CCCN(Cc2cc3c(C(F)(F)F)cn(-c4cccc(C5(Cc6nncn6C)COC5)c4)c(=O)c3[nH]2)C1 | 8.70
CO[C@H]1C[C@](c2cccc(-n3cc(C(F)(F)F)c4cc(CN5CCC[C@H](C)C5)[nH]c4c3=O)c2)(c2nncn2C)C1 | 8.77
CCN(CC)Cc1cc2c(C(F)(F)F)cn(-c3cccc([C@]4(c5nncn5C)C[C@@H](C)C4)c3)c(=O)c2[nH]1 | 9.01
CCN(Cc1cc2c(C(F)(F)F)cn(-c3cccc([C@]4(c5nncn5C)C[C@@H](OC)C4)c3)c(=O)c2[nH]1)CC(C)C | 8.41
C[C@H]1CCCN(Cc2cc3c(C4CC4)cn(-c4cccc(C5(Cc6nncn6C)CC(F)(F)C5)c4)c(=O)c3[nH]2)C1 | 8.77
Cn1cnnc1C1(c2cccc(-n3cc(C(F)(F)F)c4cc(CN5CCC[C@@H]6C[C@@H]65)[nH]c4c3=O)c2)CCC1 | 8.38
C[C@H]1CCCN(Cc2cc3c(C(F)(F)F)cn(-c4cccc(C5(c6nncn6C)CCC5)c4)c(=O)c3[nH]2)C1 | 8.99
CCN(CC)Cc1cc2c(C(F)(F)F)cn(-c3cccc(C4(c5nncn5C)CCC4)c3)c(=O)c2[nH]1 | 8.59

SMILES | pKi
CO[C@H]1C[C@@](c2cccc(-n3cc(C(F)(F)F)c4cc(CN5CC6CCC(C6)C5)[nH]c4c3=O)c2)(c2nncn2C)C1 | 9.09
C[C@H]1CCCN(Cc2cc3c(C4CC4)cn(-c4cccc([C@@H](c5nncn5C)C5CCC5)c4)c(=O)c3[nH]2)C1 | 7.42
Cc1cn(-c2cccc(C3(Cc4nncn4C)COC3)c2)c(=O)c2[nH]c(CN3CCC[C@H](C)C3)cc12 | 8.63
CO[C@H]1C[C@](c2cccc(-n3cc(C(F)(F)F)c4cc(CN5CC6CCC(C6)C5)[nH]c4c3=O)c2)(c2nncn2C)C1 | 8.27
CO[C@H]1C[C@](c2cccc(-n3cc(C(F)(F)F)c4cc(CN5CCCC6(CC6)C5)[nH]c4c3=O)c2)(c2nncn2C)C1 | 8.03
Cn1cnnc1[C@]1(c2cccc(-n3cc(C(F)(F)F)c4cc(CN5CC6CCC(C6)C5)[nH]c4c3=O)c2)C[C@H](C)C1 | 8.76
C[C@H]1CCCN(Cc2cc3c(C(F)(F)F)cn(-c4cccc([C@H](c5nncn5C)C5CCC5)c4)c(=O)c3[nH]2)C1 | 9.08
Cn1cnnc1C1(c2cccc(-n3cc(C(F)(F)F)c4cc(CN5CC6CC6C5)[nH]c4c3=O)c2)CCC1 (configuration not stated) | 8.63
C[C@H]1CCCN(Cc2cc3c(C4CC4)cn(-c4cccc(C5(Cc6nncn6C)COC5)c4)c(=O)c3[nH]2)C1 | 8.84
CO[C@H]1C[C@@](c2cccc(-n3cc(C(F)(F)F)c4cc(CN5CCC[C@H](C)C5)[nH]c4c3=O)c2)(c2nncn2C)C1 | 8.86
C[C@H]1CCCN(Cc2cc3c(C(F)(F)F)cn(-c4cccc(C5(c6nncn6C)CC6(CC6)C5)c4)c(=O)c3[nH]2)C1 | 9.10
C[C@H]1CCCN(Cc2cc3c(C(F)(F)F)cn(-c4cccc([C@]5(c6nncn6C)C[C@@H](OC(F)(F)F)C5)c4)c(=O)c3[nH]2)C1 | 8.87
Cn1cnnc1[C@]1(c2cccc(-n3cc(C(F)(F)F)c4cc(CN5CCC[C@H]6C[C@H]65)[nH]c4c3=O)c2)C[C@H](C)C1 | 8.94
CC[C@H]1C[C@](c2cccc(-n3cc(C(F)(F)F)c4cc(CN5CCC[C@H](C)C5)[nH]c4c3=O)c2)(c2nncn2C)C1 | 8.91
C[C@H]1CCCN(Cc2cc3c(C(F)(F)F)cn(-c4cccc([C@]5(c6nncn6C)C[C@H](OC(F)(F)F)C5)c4)c(=O)c3[nH]2)C1 | 8.81
C[C@H]1CCCN(Cc2cc3ccn(-c4cccc(C5(Cc6nncn6C)COC5)c4)c(=O)c3[nH]2)C1 | 7.74
C[C@H]1CCCN(Cc2cc3c(Br)cn(-c4cccc(C5(Cc6nncn6C)COC5)c4)c(=O)c3[nH]2)C1 | 8.55
CC[C@H]1C[C@@](c2cccc(-n3cc(C(F)(F)F)c4cc(CN5CCC[C@H](C)C5)[nH]c4c3=O)c2)(c2nncn2C)C1 | 8.94
Cn1cnnc1C1(c2cccc(-n3cc(C(F)(F)F)c4cc(CNC5(C)CCC5)[nH]c4c3=O)c2)CCC1 | 8.95
C[C@H]1CCCN(Cc2cc3c(C(F)(F)F)cn(-c4cccc([C@@H](c5nncn5C)C5CCC5)c4)c(=O)c3[nH]2)C1 | 8.44
Cn1cnnc1[C@]1(c2cccc(-n3cc(C(F)(F)F)c4cc(CN5CCC[C@@H]6C[C@@H]65)[nH]c4c3=O)c2)C[C@H](C)C1 | 8.74
C[C@H]1CCCN(Cc2cc3c(C(F)(F)F)cn(-c4cccc(-c5ccccc5-c5nncn5C)c4)c(=O)c3[nH]2)C1 | 8.15
C[C@H]1CCCN(Cc2cc3c(C(F)(F)F)cn(-c4cccc(C5(c6nncn6C)CC(F)(F)C5)c4)c(=O)c3[nH]2)C1 | 8.93
CO[C@H]1C[C@@](c2cccc(-n3cc(C(F)(F)F)c4cc(CN5CC6CC6C5)[nH]c4c3=O)c2)(c2nncn2C)C1 (some centres not stated) | 8.52
C[C@H]1CCCN(Cc2cc3c(C4CC4)cn(-c4cccc([C@H](c5nncn5C)C5CCC5)c4)c(=O)c3[nH]2)C1 | 8.85
CO[C@H]1C[C@](c2cccc(-n3cc(C(F)(F)F)c4cc(CN5CC6CC6C5)[nH]c4c3=O)c2)(c2nncn2C)C1 (some centres not stated) | 8.26
